Assay results taken from patent US8030518B2, “1,4 diamino bicyclic retigabine analogues as potassium channel modulators” (Valeant Pharmaceuticals International, priority 2006, dated 2011).

What was measured:
[1] = target: T1, KCNQ2/3 heteromultimers (Rattus norvegicus, UniProt O88943+O88944); assay: cell-based Rb+ efflux assay in PC-12 cells; conditions: Rb+ efflux cellular assay
T1 construct: endogenous in cells; host or cells: PC-12 cells differentiated with NGF-7s; no transfection described
Method: Compounds of this invention formula were evaluated for activity toward potassium channels in a cell-based Rb^+ efflux assay. This cellular bioassay is believed to faithfully represent the M channel activities identified with KCNQ2/3 heteromultimers. […] Additionally, antiseizure activity in vivo was evaluated in a mouse maximal electroshock seizure (MES) model, and neurotoxicities were determined from a rotorod neurocognitive motor impairment model and open field observation.
PC-12 cells were grown at 37° C. and 5% CO2 in DMEM/F12 Medium (Dulbecco's Modified Eagle Medium with Nutrient Mix F-12, available from Invitrogen of Carlsbad, Calif.), supplemented with 10% horse serum, 5% fetal bovine serum, 2 mM glutamine, 100 U/ml penicillin, and 100 U/ml streptomycin. They were plated in poly-D-lysine-coated 96-well cell culture microplates at a density of 40,000 cells/well and differentiated with 100 ng/ml NGF-7s for 2-5 days. For the assay, the medium was aspirated, and the cells were washed once with 0.2 ml wash buffer (25 mM HEPES, pH 7.4, 150 mM NaCl, 1 mM MgCl2, 0.8 mM NaH2PO4, 2 mM CaCl2). The cells were then loaded with 0.2 ml Rb^+ loading buffer (wash buffer plus 5.4 mM […], 5 mM glucose) and incubated at 37° C. for 2 h. Attached cells were washed quickly three times with buffer (same as Rb^+ loading buffer, but containing 5.4 mM KCl instead of RbCl) to remove extracellular Rb^+. Immediately following the wash, 0.2 ml of depolarization buffer (wash buffer plus 15 mM KCl solution) with or without compounds was added to the cells to activate efflux of potassium ion channels. After incubation for 10 min at room temperature, the supernatant was carefully removed and collected. Cells were lysed by the addition of 0.2 ml of lysis buffer (depolarization buffer plus 0.1% Triton X-100) and the cell lysates were also collected. If collected samples were not immediately analyzed for Rb^+ contents by atomic absorption spectroscopy (see below), they were stored at 4° C. without any negative effects on subsequent Rb^+ analysis.
The concentrations of Rb^+ in the supernatants (Rb^+Sup) and the cell lysates (Rb^+Lys) were quantified using an ICR8000 flame atomic absorption spectrometer (Aurora Biomed Inc., Vancouver, B.C.) under conditions defined by the manufacturer. Samples 0.05 ml in volume were processed automatically from microtiter plates by dilution with an equal volume of Rb^+ sample analysis buffer and injection into an air-acetylene flame. The amount of Rb^+ in the sample was measured by absorption at 780 nm using a hollow cathode lamp as light source and a PMT detector. A calibration curve covering the range 0-5 mg/L Rb^+ in sample analysis buffer was generated with each set of plates. The percent Rb^+ efflux (F) was defined by F=[Rb^+Sup/(Rb^+Sup+Rb^+Lys)]×100%. […] The efflux (F) and compound concentration relationship was plotted to calculate an EC50 value, a compound's concentration for 50% of maximal Rb^+ efflux. Seizure Model Tests

[2] = system: maximal electroshock seizure; assay: mouse maximal electroshock seizure (MES) test; format: in vivo; design: key: A: active; B: inactive; conditions: ip dosing of 12.5 mg/kg
Text: The MES testing protocol is based on procedures established at the National Institute of Neurological Disorders and Stroke in conjunction with the Anticonvulsant Screening Program (ASP) at the University of Utah (White, H. S., Woodhead, J. H., Wilcox, K. S., Stables, J. P., Kupferberg, H. J and Wolf, H. H. 2002. “General Principles: Discovery and Preclinical Development of Antiepileptic Drugs,” in Antiepileptic Drugs, 5th Edition, R. H. Levy, ed.; R. H. Mattson, B. S. Meldrum, and E. Perucca. Philadelphia, Lippincott Williams & Wilkins.), The goal of the test is to rapid identify and characterize the in vivo anticonvulsant activity of any compounds that have been shown active in PC-12 cellular based Rb^+ efflux assay.
Adult male CF-1 albino mice (18-25 g, Charles River Laboratories) are […] used for MES screening of compounds. Male Sprague-Dawley albino rats (100-125 g, Charles River Laboratories) are also used to test anticonvulsant compounds. Animals are permitted to rest and recover from transit for at least 48 hr prior to experimentation. Animals are used for AED testing only once. In some instances, the animals can be anesthetized prior to blood collection or whole brain extraction for pharmacokinetic assay. All animals are maintained and handled as outlined in standard animal care guidelines.
In the experiments, testing compounds are prepared as suspensions in 0.5% methyl cellulose (Sigma, Cat # M0512, Viscosity 4000 cP at 20° C.) in water, regardless of solubility. Dry powder compounds are initially ground with a glass rod in a test tube in several drops of methyl cellulose to create a paste and to break down any large chunks. After several minutes of grinding, the volume of the suspension is increased to the final concentration desired. The suspension is then sonicated using a Branson sonicator model 3510 in a water bath at room temperature for 15 minutes. Compound suspensions are further vortexed prior to animal dosing. In some of the cases, DMSO is used to initially solubilize compounds in small volumes and then this solution is added to the 0.5% methyl cellulose solution, in order to create more even and less aggregated compound suspensions. The final concentration of DMSO is 3.75%, an amount with no apparent toxicity or neuroprotective effects in our usual rotarod and MES tests. Methyl cellulose/DMSO compound suspensions are identically prepared for intraperitoneally (i.p.)dosing to mice or orally (p.o.) dosing to rats.
Initially the animals are weighed with an electronic scale and then marked. Data recording sheets are generated for each compound assessment. Mice or rats are dosed with the compound suspension at 0.01 mL/g of body weight. The typical injection volume range is between 180-250 μl for mice. Compounds are dosed by i.p. to mice using a 25 or 22 gauge needle, depending on the viscosity of the suspension. Rats are p.o. dosed using a flexible feeding tube, typically starting at a compound dose of 5 mg/kg.
A Rodent Electroconvulsive Stimulator (Model 200, Hamit-Darvin-Freesh, Snow Canyon Clinic, Ivins, Utah) is used for MES testing. A 60-Hz alternating current (50 mA for mice; 150 mA for rats) is delivered for 0.2 seconds through corneal electrodes to the mice. A drop of 0.5% tetracaine (Sigma, Cat. # T-7508) solution is placed on the eye prior to current delivery. The electrodes are subsequently placed gently onto the eyes of the animal and the electrical shock is initiated by triggering through a foot-pedal activator. The animals are restrained by hand and gently released as the shock is delivered and the seizure commences. Animals are monitored for hind limb tonic extension as the end point for this test. Current delivery is recorded as a measure of overall seizure-induction potential. Electrical current delivery can vary from approximately 30-55 mA (mice) or 90-160 mA (rats) depending on impedance in the animal and quality of the current delivery (i.e. correct placement of the electrodes on the cornea). […]

Compound	EC50 [1]	Mouse MES test [2]
Cc1cc2c(c(C)c1NC(=O)CC(C)(C)C)CCCC2Nc1ccc(Br)cc1 (centres unmarked) [Example 8, N-(1,3-dimethyl-5-(4-bromophenylamino)-5,6,7,8-tetrahydronaphthalen-2-yl)-3,3-dimethylbutanamide]	1 to 10 nM	
CCOC(=O)Nc1ccc2c(c1)CCC2Nc1ccc(F)cc1 (centres unmarked) [Example 25, Ethyl 1-(4-fluorophenylamino)-2,3-dihydro-1H-inden-5-yl-carbamate]	> 500 nM	
Cc1cc2c(c(C)c1NC(=O)CC(C)(C)C)CCCC2Nc1ccc(F)cc1 (single isomer, unassigned; (-)) [Example 3, (−)N-(5-(4-fluorophenylamino)-1,3-dimethyl-5,6,7,8-tetrahydronaphthalen-2-yl)-3,3-dimethylbutanamide]	1 to 10 nM	A
Cc1cc2c(c(C)c1NC(=O)CC(C)(C)C)CCC2Nc1ccc(F)c(F)c1 (centres unmarked) [Example 21, N-(4,6-dimethyl-1-(3,4-difluorophenylamino)-2,3-dihydro-1H-inden-5-yl)-3,3-dimethylbutanamide]	1 to 10 nM	A
Cc1cc2c(c(C)c1NC(=O)CC(C)(C)C)CCCC2Nc1ccc(F)cc1 (single isomer, unassigned; (+)) [Example 4, (+)N-(5-(4-fluorophenylamino)-1,3-dimethyl-5,6,7,8-tetrahydronaphthalen-2-yl)-3,3-dimethylbutanamide]	10 to 50 nM	A
Cc1cc2c(c(C)c1NC(=O)CC(C)(C)C)CCC2Nc1ccc(C(F)(F)F)cc1 (single isomer, unassigned; (+)) [Example 16, (+) N-(4,6-dimethyl-1-(4-(trifluoromethyl)phenylamino)-2,3-dihydro-1H-inden-5-yl)-3,3-dimethylbutanamide]	1 to 10 nM	A
Cc1cc2c(c(C)c1NC(=O)CC(C)(C)C)CCC2Nc1cc(F)cc(F)c1 (centres unmarked) [Example 22, N-(4,6-dimethyl-1-(3,5-difluorophenylamino)-2,3-dihydro-1H-inden-5-yl)-3,3-dimethylbutanamide]	1 to 10 nM	A
Cc1cc2c(c(C)c1NC(=O)CC(C)(C)C)CCCC2Nc1cc(F)cc(F)c1 (centres unmarked) [Example 10, N-(1,3-dimethyl-5-(3,5-difluorophenylamino)-5,6,7,8-tetrahydronaphthalen-2-yl)-3,3-dimethylbutanamide]	1 to 10 nM	A
Cc1cc2c(c(C)c1NC(=O)CC(C)(C)C)CCC2Nc1ccc(Cl)cc1 (centres unmarked) [Example 17, N-(4,6-dimethyl-1-(4-chlorophenylamino)-2,3-dihydro-1H-inden-5-yl)-3,3-dimethylbutanamide]	≤ 1 nM	A
Cc1cc2c(c(C)c1NC(=O)CC(C)(C)C)CCCC2Nc1ccc(Cl)c(Cl)c1 (centres unmarked) [Example 6, N-(1,3-dimethyl-5-(3,4-dichlorophenylamine)-5,6,7,8-tetrahydronaphthalen-2-yl)-3,3-dimethylbutanamide]	1 to 10 nM	B
Cc1cc2c(c(C)c1NC(=O)CC(C)(C)C)CCC2Nc1ccc(Br)cc1 (centres unmarked) [Example 18, N-(4,6-dimethyl-1-(4-bromophenylamino)-2,3-dihydro-1H-inden-5-yl)-3,3-dimethylbutanamide]	≤ 1 nM	A
Cc1c(Br)c2c(c(C)c1NC(=O)CC(C)(C)C)CCCC2Nc1ccc(C(F)(F)F)cc1 (centres unmarked)	> 500 nM	
Cc1cc2c(c(C)c1NC(=O)CC(C)(C)C)CCCC2Nc1cccc(Cl)c1 (centres unmarked) [Example 9, N-(1,3-dimethyl-5-(3-chlorophenylamino)-5,6,7,8-tetrahydronaphthalen-2-yl)-3,3-dimethylbutanamide]	1 to 10 nM	A
Cc1cc2c(c(C)c1NC(=O)CC(C)(C)C)CCC2Nc1ccc(Cl)c(Cl)c1 (centres unmarked) [Example 20, N-(4,6-dimethyl-1-(3,4-dichlorophenylamine)-2,3-dihydro-1H-inden-5-yl)-3,3-dimethylbutanamide]	≤ 1 nM	A
Cc1cc2c(c(C)c1NC(=O)CC(C)(C)C)CCCC2Nc1ccc(F)cc1 (centres unmarked) [Example 2, N-(5-(4-fluorophenylamino)-1,3-dimethyl-5,6,7,8-tetrahydronaphthalen-2-yl)-3,3-dimethylbutanamide]	10 to 50 nM	A
Cc1cc2c(c(C)c1NC(=O)CC(C)(C)C)CCCC2Nc1ccc(Cl)cc1 (centres unmarked) [Example 7, N-(1,3-dimethyl-5-(4-chlorophenylamino)-5,6,7,8-tetrahydronaphthalen-2-yl)-3,3-dimethylbutanamide]	1 to 10 nM	A
Cc1cc2c(c(C)c1NC(=O)CC(C)(C)C)CCC2Nc1ccc(F)nc1 (centres unmarked) [Example 23, N-(1-(6-fluoropyridin-3-ylamino)-4,6-dimethyl-2,3-dihydro-1H-inden-5-yl)-3,3-dimethylbutanamide]	50 to 500 nM	A
Cc1cc2c(c(C)c1NC(=O)CC(C)(C)C)CCC2Nc1ccc(F)cc1 (single isomer, unassigned; (+)) [Example 13, (+) N-(1-(4-fluorophenylamino)-4,6-dimethyl-2,3-dihydro-1H-inden-5-yl)-3,3-dimethylbutanamide]	1 to 10 nM	A
Cc1cc2c(c(C)c1NC(=O)CC(C)(C)C)CCCC2Nc1ccc(C(F)(F)F)cc1 (centres unmarked) [Example 5, N-(1,3-dimethyl-5-(4-(trifluoromethyl)phenylamino)-5,6,7,8-tetrahydronaphthalen-2-yl)-3,3-dimethylbutanamide]	1 to 10 nM	A
